Measurements from the supplement of paper PMC10307832.

Key:
Test in all cases: relative viability (nuclei count vs DMSO), 5 days (fraction); higher = more cells survive
[1] = tested on: NCI-H2228
Summary of the method: (§1)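 Lung cancer cell lines in 1536-well plates got either a single drug or a fixed anchor-drug dose together with five library-drug doses (not always all listed) in √10 steps, by pin tool, on the day after seeding. Nuclei were counted after 5 days, and relative viability is the treated-to-vehicle ratio of nuclei counts. Values are medians of duplicate plates.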

[2] = tested on: NCI-H1793
Summary of the method: as §1

[3] = tested on: ABC-1
Summary of the method: as §1

[4] = tested on: NCI-H727
Summary of the method: as §1

[5] = tested on: SW 1573
Summary of the method: as §1

[6] = tested on: NCI-H1792
Summary of the method: as §1

[7] = tested on: NCI-H596
Summary of the method: as §1

[8] = tested on: PC-3 [JPC-3]
Summary of the method: as §1

[9] = tested on: LK-2
Summary of the method: as §1

[10] = tested on: NCI-H1944
Summary of the method: as §1

[11] = tested on: EMC-BAC-2
Summary of the method: as §1

NC(=O)Nc1cc(-c2cccc(F)c2)sc1C(=O)N[C@H]1CCCNC1 [AZD7762] + Cc1nc(NC(=O)N2CCC[C@H]2C(N)=O)sc1-c1ccnc(C(C)(C)C(F)(F)F)c1 [Alpelisib] (partner 2 µM)
relative viability ([1]; first compound 0.01 µM): 0.886 | relative viability ([1]; first compound 0.03162 µM): 0.666 | relative viability ([1]; first compound 0.1 µM): 0.8 | relative viability ([1]; first compound 0.3162 µM): 0.407 | relative viability ([1]; first compound 1 µM): 0.19 | relative viability ([2]; first compound 0.01 µM): 0.835 | relative viability ([2]; first compound 0.03162 µM): 0.795 | relative viability ([2]; first compound 0.1 µM): 0.627 | relative viability ([2]; first compound 0.3162 µM): 0.854 | relative viability ([2]; first compound 1 µM): 0.524 | relative viability ([3]; first compound 0.01 µM): 1.03 | relative viability ([3]; first compound 0.03162 µM): 0.831 | relative viability ([3]; first compound 0.1 µM): 0.942 | relative viability ([3]; first compound 0.3162 µM): 0.557 | relative viability ([3]; first compound 1 µM): 0.311 | relative viability ([4]; first compound 0.01 µM): 0.583 | relative viability ([4]; first compound 0.03162 µM): 0.561 | relative viability ([4]; first compound 0.1 µM): 0.471 | relative viability ([4]; first compound 0.3162 µM): 0.466 | relative viability ([4]; first compound 1 µM): 0.218 | relative viability ([5]; first compound 0.01 µM): 0.885 | relative viability ([5]; first compound 0.03162 µM): 0.807 | relative viability ([5]; first compound 0.1 µM): 0.926 | relative viability ([5]; first compound 0.3162 µM): 1.08 | relative viability ([5]; first compound 1 µM): 0.647 | relative viability ([6]; first compound 0.01 µM): 0.826 | relative viability ([6]; first compound 0.03162 µM): 0.781 | relative viability ([6]; first compound 0.1 µM): 0.727 | relative viability ([6]; first compound 0.3162 µM): 0.751 | relative viability ([6]; first compound 1 µM): 0.9 | relative viability ([7]; first compound 0.01 µM): 0.549 | relative viability ([7]; first compound 0.03162 µM): 0.514 | relative viability ([7]; first compound 0.1 µM): 0.481 | relative viability ([7]; first compound 0.3162 µM): 0.503 | relative viability ([7]; first compound 1 µM): 0.421 | relative viability ([8]; first compound 0.01 µM): 0.998 | relative viability ([8]; first compound 0.03162 µM): 1.03 | relative viability ([8]; first compound 0.1 µM): 1.05 | relative viability ([8]; first compound 0.3162 µM): 1.1 | relative viability ([8]; first compound 1 µM): 0.897 | relative viability ([9]; first compound 0.01 µM): 1.21 | relative viability ([9]; first compound 0.03162 µM): 0.946 | relative viability ([9]; first compound 0.1 µM): 0.976 | relative viability ([9]; first compound 0.3162 µM): 0.838 | relative viability ([9]; first compound 1 µM): 0.618 | relative viability ([10]; first compound 0.01 µM): 0.855 | relative viability ([10]; first compound 0.03162 µM): 1.03 | relative viability ([10]; first compound 0.1 µM): 1.01 | relative viability ([10]; first compound 0.3162 µM): 1.08 | relative viability ([10]; first compound 1 µM): 0.893 | relative viability ([11]; first compound 0.01 µM): 0.82 | relative viability ([11]; first compound 0.03162 µM): 0.72 | relative viability ([11]; first compound 0.1 µM): 0.79 | relative viability ([11]; first compound 0.3162 µM): 0.762 | relative viability ([11]; first compound 1 µM): 0.797
